Measured values taken from US4371544A, “Pharmaceutical composition containing 1,1,3,5-substituted biuret compound” (Taiho Pharmaceutical Company Limited, priority 1979, dated 1983).
Read-outs that look alike come from different tables or passages of the source.

Key:
[1] = tested on: Wistar strain of male rats; test: Anti-inflammatory activity (acute carrageenin-induced inflammatory test, hindpaw); assay type: in vivo, rat (Wistar); conditions: for inhibition in vivo at 100 mg/kg: Rattus norvegicus, read-out: Anti-inflammatory activity, inflammation inhibitory ratio
Experimental: (§1) Next, several tests for determining the pharmacological properties, in that acute toxicity, anti-pyretic activity, analgesic activity and anti-inflammatory activity of the present 1,1,3,5-substituted biuret compounds of the formula (1) were conducted and the test results are shown in Table (2). In the tests, each compounds to be tested was used as a suspension in 0.25% carboxymethylcellulose solution. Methods for testing are explained as follows:
According to the method of acute carrageenin-induced inflammatory test [Folia Pharmacologia Japonica, Vol. 56, pp. 575 (1960)], the Wistar strain of male rats (body weight, 150-180 g) were used as test animals. The rats were fasted overnight, 100 mg/kg body weight of the test compound was administered orally, then 1 hour after the administration, 0.1 ml of 1% carrageenin solution, as the inflammation inducing agent, was injected subcutaneously to the hindpaw of the rat and the volume of the hindpaw was measured at time sequences, Anti-inflammatory activity of the test compound was calculated as inflammation inhibitory ratio (%) at 3 hours after the injection of inflammation inducing agent.

[2] = tested on: ddy strain of male mice; test: Analgesic activity, Haffner method (morphine threshold dose, clamp); assay type: in vivo, mouse (ddy); conditions: for ED50 / inhibition in vivo at 200 mg/kg / inhibition in vivo at 100 mg/kg: Mus musculus; for ED50: oral, Δ mark, range in parentheses; for inhibition in vivo at 200 mg/kg / inhibition in vivo at 100 mg/kg: read-out: Analgesic activity, Haffner method, inhibitory ratio
Experimental: as §1
According to the modified method reported by Fujimura et. al., [Bulletin of the Institute for Chemical Research, Kyoto University, No. 25, pp. 36 (1951)], the ddy strain of male mice (body weight, 20-25 g) were used as test animals. The mice were fasted overnight, 100 mg/kg body weight of the test compound was administered orally, then 45 minutes after the administration, the threshold amount (1.5-2.5 mg/kg body weight) of morphine hydrochloride was injected subcutaneously. Then 1-hour pain reaction of the mouse caused by a clamp was observed. Analgesic activity of the test compound was calculated as the inhibitory ratio (%). In Table 2, the values in parentheses show the data obtained from the test by using the dosage other than 100 mg/kg body weight. Further, the values indicated with Δ marks show 50% effective dose, ED50 (mg/kg body weight).

[3] = tested on: Wistar strain of male rats; test: Anti-pyretic activity (dry-yeast-induced fever); assay type: in vivo, rat (Wistar); conditions: oral (dose not given), up to 4 hours after administration
Experimental: as §1
According to the method reported by Tanabe [Folia Pharmacologia Japonica, Vol. 73, pp. 803 (1977)], the Wistar strain of male rats (150-180 g, body weight) were used as test animals. The rats were fasted overnight, and 1 ml/100 g (body weight) of 10% dry-yeast suspension were subcutaneously injected on the back of the rats. Five hours after the injection, the test compound was administered orally, then the body temperature of the rat was measured at time sequences. Anti-pyretic activity of the test compound was determined as the FI (febril index) by integrating pyrogenetic curve up to 4 hours after the administration of the test compound with time, and indicated as inhibitory ratio (%) shown by the following formula, [formula]

[4] = tested on: ddy strain of male mice; test: Analgesic activity, acetic acid-induced stretching method; assay type: in vivo, mouse (ddy); conditions: for ED50: oral, Δ mark, range in parentheses
Experimental: as §1
According to the method reported by Koster et al., [Fed. Proc., Vol. 18, pp. 412 (1959)], the ddy strain of male mice (body weight, 20-25 g) were used as test animals. The mice were fasted overnight, 100 mg/kg body weight of the test compound was administered orally, then 1 hour after the administration, 0.2 ml of 0.7% acetic acid solution was injected intraperitoneally. The acetic acid-induced stretching symptom of mouse was observed. Analgesic activity of the test compound was calculated as the inhibitory ratio (%). In Table 2, the values in parentheses show the data obtained from the test by using the dosage other than 100 mg/kg body weight. Further, the values indicated with Δ marks show 50% effective dose, ED50 (mg/kg body weight).

[5] = tested on: ddy strain of male mice; test: Acute toxicity (oral, mice, 7 days observation); assay type: in vivo
Experimental: as §1
The ddy strain of male mice (body weight, 20-25 g) were used as test animals. The mice were fasted overnight and the compound to be tested was administered orally. […] The lethal dose (mg/kg, body weight) of the test compound was determined in connection with the death number of mice/the number of mice tested. In Table 2, the values indicated with Δ marks are 50% lethal dose, LD50 (mg/kg, body weight).

[6] = 100 mg/kg oral, 3 hours after carrageenin
[7] = 100 mg/kg oral, 45 minutes before morphine hydrochloride
[8] = 100 mg/kg oral, 1 hour before acetic acid
[9] = Mus musculus, po, read-out: Analgesic activity, acetic acid-induced stretching method, inhibitory ratio

| SMILES | Anti-inflammatory activity, inflammation inhibitory ratio [1, 6] | ED50 [2] | Anti-pyretic activity, inhibitory ratio (febril index) [3] | Acute toxicity: death number of mice/number of mice tested ([5]; 1000 mg/kg oral) | Analgesic activity, acetic acid-induced stretching method, inhibitory ratio [4, 8] | Acute toxicity: death number of mice/number of mice tested ([5]; 2000 mg/kg oral) | also measured |
| --- | --- | --- | --- | --- | --- | --- | --- |
| CN(C)C(=O)N(C)C(=O)Nc1ccc(Cl)cc1 [Compound No. 12, 1,1,3-Trimethyl-5-(4-chlorophenyl)biuret] | 47% | 20 mg/kg | 84% | – | – | – | ED50 ([4]; Mus musculus): 12 mg/kg |
| CN(C)C(=O)N(C)C(=O)Nc1ccc(Br)cc1 [Compound No. 16, 1,1,3-Trimethyl-5-(4-bromophenyl)biuret] | – | 74 mg/kg | 103% | – | – | – | Anti-inflammatory activity, inflammation inhibitory ratio ([1]; 100 mg/kg oral, (2 hours)): 48%; ED50 ([4]; Mus musculus): 60 mg/kg |
| CN(C)C(=O)N(C)C(=O)Nc1ccccc1C(F)(F)F [Compound No. 17, 1,1,3-Trimethyl-5-(2-trifluoromethylphenyl)biuret] | 66% | – | 65% | 1/4 | 12.5% | – | Analgesic activity, Haffner method, inhibitory ratio [2, 7]: 37.5% |
| COc1ccc(NC(=O)N(C)C(=O)N(C)C)cc1 [Compound No. 23, 1,1,3-Trimethyl-5-(4-methoxyphenyl)biuret] | 33% | 80 mg/kg | 75% | – | – | – | ED50 ([4]; Mus musculus): 39 mg/kg |
| Cc1ccc(NC(=O)N(C)C(=O)N(C)C)cc1 [Compound No. 28, 1,1,3-Trimethyl-5-(4-methylphenyl)biuret] | – | 80 mg/kg | 52% | – | – | 0/4 | Anti-inflammatory activity, inflammation inhibitory ratio ([1]; 100 mg/kg oral, (2 hours)): 23%; ED50 ([4]; Mus musculus): 33 mg/kg |
| CN(C)C(=O)N(C(=O)Nc1ccccc1)c1ccccc1 [Compound No. 42, 1,1-dimethyl-3,5-diphenylbiuret] | – | – | 14% | 0/4 | – | 3/4 | inhibition in vivo at 100 mg/kg [1, 6]: 34%; inhibition in vivo at 200 mg/kg ([2]; 200 mg/kg oral): 50%; inhibition in vivo at 200 mg/kg [4, 9]: 62.5% |
| CCCNC(=O)N(C)C(=O)N(C)c1ccccc1 [Compound No. 55, 1,3-Dimethyl-1-phenyl-5-n-propylbiuret] | – | 90 mg/kg | 80% | 1/4 | – | – | Acute toxicity: death number of mice/number of mice tested ([5]; 1500 mg/kg oral): 4/4; inhibition in vivo at 100 mg/kg [1, 6]: 73%; ED50 ([4]; Mus musculus): 80 mg/kg |
| CCN(CC)C(=O)N(C)C(=O)Nc1ccccc1 [Compound No. 57, 1,1-diethyl-3-methyl-5-phenylbiuret] | – | – | 19% | – | – | 1/4 | inhibition in vivo at 100 mg/kg ([1]; po, 3 h): 23%; inhibition in vivo at 200 mg/kg ([2]; 200 mg/kg oral): 50%; inhibition in vivo at 100 mg/kg [4, 9]: 37.5% |
| CN(C)C(=O)N(C)C(=O)Nc1c(F)c(F)cc(F)c1F [compound 9, 1,1,3-Trimethyl-5-(2,3,5,6-tetrafluorophenyl)biuret] | 24% | – | 33% | 4/4 | 87.5% | – | Acute toxicity: death number of mice/number of mice tested ([5]; 500 mg/kg oral): 0/4; Analgesic activity, Haffner method, inhibitory ratio [2, 7]: 50% |
| CN(C)C(=O)N(C)C(=O)Nc1cccc(Cl)c1 [compound 11, 1,1,3-Trimethyl-5-(3-chlorophenyl)biuret] | – | – | 43% | – | 62.5% | – | Anti-inflammatory activity, inflammation inhibitory ratio ([1]; 100 mg/kg oral, (2 hours)): 30%; Analgesic activity, Haffner method, inhibitory ratio ([2]; 200 mg/kg oral): 75% |
| CN(C)C(=O)N(C)C(=O)Nc1cccc(C(F)(F)F)c1 [compound 18, 1,1,3-Trimethyl-5-(3-trifluoromethylphenyl)biuret] | – | 64 mg/kg | 62% | 0/4 | 37.5% | 4/4 | Anti-inflammatory activity, inflammation inhibitory ratio ([1]; 100 mg/kg oral, (2 hours)): 32% |
| Cc1ccccc1NC(=O)N(C)C(=O)N(C)C [compound 26, 1,1,3-Trimethyl-5-(2-methylphenyl)biuret] | 29% | – | 41% | – | 37.5% | – | Analgesic activity, Haffner method, inhibitory ratio [2, 7]: 50% |
| Cc1cccc(NC(=O)N(C)C(=O)N(C)C)c1 [compound 27, 1,1,3-Trimethyl-5-(3-methylphenyl)biuret] | 28% | – | 31% | – | 75% | 2/4 | Analgesic activity, Haffner method, inhibitory ratio [2, 7]: 37.5% |
| CCN(C(=O)Nc1ccccc1)C(=O)N(C)C [compound 36, 1,1-Dimethyl-3-ethyl-5-phenylbiuret] | 23% | – | 12% | 0/4 | 62.5% | 3/4 | inhibition in vivo at 100 mg/kg [2, 7]: 62.5% |
| CCCCN(C(=O)Nc1ccccc1)C(=O)N(C)C [compound 38, 1,1-Dimethyl-3-n-butyl-5-phenylbiuret] | – | – | 18% | 0/4 | 37.5% | 3/4 | inhibition in vivo at 100 mg/kg [1, 6]: 31%; inhibition in vivo at 200 mg/kg ([2]; 200 mg/kg oral): 37.5% |
| CCCN(C)C(=O)N(C)C(=O)Nc1ccccc1 [compound 46, 1,3-Dimethyl-1-n-propyl-5-phenylbiuret] | – | – | 44% | 1/4 | – | 4/4 | Anti-inflammatory activity, inflammation inhibitory ratio ([1]; 100 mg/kg oral, (2 hours)): 26%; Analgesic activity, Haffner method, inhibitory ratio [2, 7]: 37.5%; Analgesic activity, acetic acid-induced stretching method, inhibitory ratio ([4]; 60 mg/kg oral): 75% |
| CCCNC(=O)NC(=O)N(C)c1ccccc1 [compound 51, 1-Methyl-1-phenyl-5-n-propylbiuret] | – | – | 164% | 2/4 | – | – | Acute toxicity: death number of mice/number of mice tested ([5]; 500 mg/kg oral): 1/4; inhibition in vivo at 100 mg/kg ([1]; po, 3 h): 60%; inhibition in vivo at 100 mg/kg [2, 7]: 87.5%; inhibition in vivo at 100 mg/kg [4, 9]: 37.5% |
| CCCCNC(=O)NC(=O)N(C)c1ccccc1 [compound 52, 1-Methyl-1-phenyl-5-n-butylbiuret] | – | – | 104% | 0/4 | – | 3/4 | inhibition in vivo at 100 mg/kg [1, 6]: 48%; inhibition in vivo at 100 mg/kg [2, 7]: 50%; inhibition in vivo at 100 mg/kg ([4]; Mus musculus, 100 mg/kg oral, 1 hour before acetic acid, read-out: Analgesic activity, acetic acid-induced stretching method, inhibitory ratio): 62.5% |
